By IC50 is commonly meant the concentration needed to halve the response being measured.

The assay relates to HIV in the HTLV-1 transformed cell line MT-4. Description: organism not typed. The class given is cell-based. The note with it: MT4, 96 h, MT-4 cells; luciferase/cell titer glo readout after 96 hours; 10 point dose response.

The structures appear in SMILES notation.

The molecule `Cc1c2c(c(C)c([C@H](OC(C)(C)C)C(=O)O)c1-c1ccc3c4c(ccnc14)CCO3)CN(C(=O)c1cccc(F)c1)C2` [Example 299, (2S)-2-(tert-butoxy)-2-(6-(2,3-dihydropyrano[4,3,2-de]quinolin-7-yl)-2-(3-fluorobenzoyl)-4,7-dimethylisoindolin-5-yl)acetic acid] had an IC50 of 14 nM.

Regarding `Cc1c(-c2c(C)c3c(c(C)c2[C@H](OC(C)(C)C)C(=O)O)CN(C(=O)c2cc(F)cc(F)c2)C3)cc(F)c2c1CCCO2` (atropisomer, axis not shown; (M)) [Example 170, (S)-2-(tert-butoxy)-2-((M)-2-(3,5-difluorobenzoyl)-6-(8-fluoro-5-methylchroman-6-yl)-4,7-dimethylisoindolin-5-yl)acetic acid], 2 nM corresponded to half-maximal inhibition (IC50).

With `Cc1ccc(-c2c(C)c3c(c(C)c2[C@H](OC(C)(C)C)C(=O)O)CN(CCCc2cccc(F)c2)C3)cc1` [Example 38, (2S)-2-(tert-butoxy)-2-{2-[3-(3-fluorophenyl)propyl]-4,7-dimethyl-6-(4-methylphenyl)-2,3-dihydro-1H-isoindol-5-yl}acetic acid], the IC50 was 1230 nM.

Molecule `Cc1ccc(-c2c(C)c3c(c(C)c2[C@H](OC(C)(C)C)C(=O)O)CN(C(=O)c2cccc(C(C)(C)C)c2)C3)cc1` [Example 230, (S)-2-(tert-butoxy)-2-(2-(3-(tert-butyl)benzoyl)-4,7-dimethyl-6-(p-tolyl)isoindolin-5-yl)acetic acid] showed an IC50 of 111 nM.

Molecule `Cc1c(-c2c(C)c3c(c(C)c2[C@H](OC(C)(C)C)C(=O)O)CN(C(=O)c2cccc4c2OCCO4)C3)cc(F)c2c1CCCO2` (atropisomer, axis not shown; (M)) [Example 153, (S)-2-(tert-butoxy)-2-((M)-2-(2,3-dihydrobenzo[b][1,4]dioxine-5-carbonyl)-6-(8-fluoro-5-methylchroman-6-yl)-4,7-dimethylisoindolin-5-yl)acetic acid] registered an IC50 of 4 nM.

Turning to `Cc1c(-c2c(C)c3c(c(C)c2[C@H](OC(C)(C)C)C(=O)O)CN(C(=O)N2CCCC[C@H]2C)C3)cc(F)c2c1CCCO2` (atropisomer, axis not shown; (M)) [Example 205, (S)-2-(tert-butoxy)-2-((M)-6-(8-fluoro-5-methylchroman-6-yl)-4,7-dimethyl-2-((M)-2-methylpiperidine-1-carbonyl)isoindolin-5-yl)acetic acid], the IC50 is 4 nM.

On to `Cc1ccc(-c2c(C)c3c(c(C)c2[C@H](OC(C)(C)C)C(=O)O)CN(C(=O)c2cc(F)c(F)c(F)c2)C3)cc1` [Example 279, (S)-2-(tert-butoxy)-2-(4,7-dimethyl-6-(p-tolyl)-2-(3,4,5-trifluorobenzoyl)isoindolin-5-yl)acetic acid], for which the midpoint of inhibition, the IC50, lay at 4 nM.

`Cc1cc(Cl)ccc1-c1c(C)c2c(c(C)c1[C@H](OC(C)(C)C)C(=O)O)CN(C(=O)C1CCCCC1)C2` [Example 324, (2S)-2-(tert-butoxy)-2-(6-(4-chloro-2-methylphenyl)-2-(cyclohexanecarbonyl)-4,7-dimethylisoindolin-5-yl)acetic acid] came in with an IC50 of 13 nM.

`Cc1c(-c2c(C)c3c(c(C)c2[C@H](OC(C)(C)C)C(=O)O)CN(C(=O)c2cccc4ccccc24)C3)cc(F)c2c1CCCO2` (atropisomer, axis not shown; (M)) [Example 168, (S)-2-((M)-2-(1-naphthoyl)-6-(8-fluoro-5-methylchroman-6-yl)-4,7-dimethylisoindolin-5-yl)-2-(tert-butoxy)acetic acid] displayed an IC50 of 11 nM.

`Cc1ccc(-c2c(C)c3c(c(C)c2[C@H](OC(C)(C)C)C(=O)O)CN(C(=O)N2CCN(C)CC2)C3)cc1` [Example 71, (2S)-2-(tert-butoxy)-2-[4,7-dimethyl-6-(4-methylphenyl)-2-(4-methylpiperazine-1-carbonyl)-2,3-dihydro-1H-isoindol-5-yl]acetic acid] registered an IC50 of 276 nM.

`Cc1c(-c2c(C)c3c(c(C)c2[C@H](OC(C)(C)C)C(=O)O)CN(C(=O)c2cc(F)ccc2F)C3)cc(F)c2c1CCCO2` (atropisomer, axis not shown; (M)) [Example 285, (S)-2-(tert-butoxy)-2-((M)-2-(2,5-difluorobenzoyl)-6-(8-fluoro-5-methylchroman-6-yl)-4,7-dimethylisoindolin-5-yl)acetic acid]: the IC50 turned out to be 2 nM.

Take `Cc1ccc(-c2c(C)c3c(c(C)c2[C@H](OC(C)(C)C)C(=O)O)CN(Cc2cccc(F)c2F)C3)cc1` [Example 3, (S)-2-(tert-butoxy)-2-(2-(2,3-difluorobenzyl)-4,7-dimethyl-6-(p-tolyl)isoindolin-5-yl)acetic acid]: the IC50 stood at 40 nM.

As to `COc1cncc(C(=O)N2Cc3c(C)c(-c4ccc(C)cc4)c([C@H](OC(C)(C)C)C(=O)O)c(C)c3C2)c1` [Example 235, (S)-2-(tert-butoxy)-2-(2-(5-methoxynicotinoyl)-4,7-dimethyl-6-(p-tolyl)isoindolin-5-yl)acetic acid], the IC50 stood at 5 nM.

For `Cc1ccc(-c2c(C)c3c(c(C)c2[C@H](OC(C)(C)C)C(=O)O)CN(C(=O)c2ccccn2)C3)cc1` [Example 273, (S)-2-(tert-butoxy)-2-(4,7-dimethyl-2-picolinoyl-6-(p-tolyl)isoindolin-5-yl)acetic acid], the IC50 stood at 4 nM.

Regarding `Cc1ccc(-c2c(C)c3c(c(C)c2[C@H](OC(C)(C)C)C(=O)O)CN(S(=O)(=O)c2ccc(F)cc2)C3)cc1` [Example 49, (2S)-2-(tert-butoxy)-2-[2-(4-fluorobenzenesulfonyl)-4,7-dimethyl-6-(4-methylphenyl)-2,3-dihydro-1H-isoindol-5-yl]acetic acid], half-maximal inhibition (IC50) was put at 100 nM.

In the case of `COc1cc(C)ccc1C(=O)N1Cc2c(C)c(-c3cc(F)c4c(c3C)CCCO4)c([C@H](OC(C)(C)C)C(=O)O)c(C)c2C1` (atropisomer, axis not shown; (M)) [Example 200, (S)-2-(tert-butoxy)-2-((M)-6-(8-fluoro-5-methylchroman-6-yl)-2-(2-methoxy-4-methylbenzoyl)-4,7-dimethylisoindolin-5-yl)acetic acid], inhibition was half-maximal at 11 nM (IC50).

The molecule `Cc1ccc(-c2c(C)c3c(c(C)c2[C@H](OC(C)(C)C)C(=O)O)CN(C(=O)c2cccnc2)C3)cc1` [Example 268, (S)-2-(tert-butoxy)-2-(4,7-dimethyl-2-nicotinoyl-6-(p-tolyl)isoindolin-5-yl)acetic acid] registered an IC50 of 14 nM.

Consider `Cc1ccc(-c2c(C)c3c(c(C)c2[C@H](OC(C)(C)C)C(=O)O)CN(C(=O)N2CCN4CCC[C@@H]4C2)C3)cc1` [Example 80, (2S)-2-{2-[(8aR)-octahydropyrrolo[1,2-a]piperazine-2-carbonyl]-4,7-dimethyl-6-(4-methylphenyl)-2,3-dihydro-1H-isoindol-5-yl}-2-(tert-butoxy)acetic acid], for which the IC50 was 381 nM.

With `Cc1c(-c2c(C)c3c(c(C)c2[C@H](OC(C)(C)C)C(=O)O)CN(C(=O)Nc2cccc(F)c2)C3)cc(F)c2c1CCCO2` (atropisomer, axis not shown; (M)) [Example 210, (S)-2-(tert-butoxy)-2-((M)-6-(8-fluoro-5-methylchroman-6-yl)-2-((3-fluorophenyl)carbamoyl)-4,7-dimethylisoindolin-5-yl)acetic acid], the IC50 worked out at 14 nM.

Take `COC(=O)N1Cc2c(C)c(-c3ccc(C)cc3)c([C@H](OC(C)(C)C)C(=O)O)c(C)c2C1` [Example 48, (2S)-2-(tert-butoxy)-2-[2-(methoxycarbonyl)-4,7-dimethyl-6-(4-methylphenyl)-2,3-dihydro-1H-isoindol-5-yl]acetic acid]: 573 nM corresponded to half-maximal inhibition (IC50).

The molecule `Cc1c(-c2c(C)c3c(c(C)c2[C@H](OC(C)(C)C)C(=O)O)CN(C(=O)N2CCC(F)(F)C2)C3)cc(F)c2c1CCCO2` (atropisomer, axis not shown; (M)) [Example 100, (2S)-2-(tert-Butoxy)-2-(2-(3,3-difluoropyrrolidine-1-carbonyl)-6-(M)-(8-fluoro-5-methylchroman-6-yl)-4,7-dimethylisoindolin-5-yl)acetic acid] yielded an IC50 of 5 nM.

For the molecule `COc1ccc(F)c(C(=O)N2Cc3c(C)c(-c4cc(F)c5c(c4C)CCCO5)c([C@H](OC(C)(C)C)C(=O)O)c(C)c3C2)c1` (atropisomer, axis not shown; (M)) [Example 179, (S)-2-(tert-butoxy)-2-((M)-2-(2-fluoro-5-methoxybenzoyl)-6-(8-fluoro-5-methylchroman-6-yl)-4,7-dimethylisoindolin-5-yl)acetic acid], the IC50 turned out to be 4 nM.

The molecule `Cc1c(-c2c(C)c3c(c(C)c2[C@H](OC(C)(C)C)C(=O)O)CN(C(=O)c2cc(F)c(F)c(Cl)c2)C3)cc(F)c2c1CCCO2` (atropisomer, axis not shown; (M)) [Example 194, (S)-2-(tert-butoxy)-2-((M)-2-(3-chloro-4,5-difluorobenzoyl)-6-(8-fluoro-5-methylchroman-6-yl)-4,7-dimethylisoindolin-5-yl)acetic acid] had an IC50 of 11 nM.

For the molecule `Cc1cccc(C(=O)N2Cc3c(C)c(-c4cc(F)c5c(c4C)CCCO5)c([C@H](OC(C)(C)C)C(=O)O)c(C)c3C2)c1` (atropisomer, axis not shown; (M)) [Example 149, (S)-2-(tert-butoxy)-2-((M)-6-(8-fluoro-5-methylchroman-6-yl)-4,7-dimethyl-2-(3-methylbenzoyl)isoindolin-5-yl)acetic acid], 2 nM corresponded to half-maximal inhibition (IC50).

On to `COc1cccc(C(=O)N2Cc3c(C)c(-c4cc(F)c5c(c4C)CCCO5)c([C@H](OC(C)(C)C)C(=O)O)c(C)c3C2)c1F` (atropisomer, axis not shown; (M)) [Example 148, (S)-2-(tert-butoxy)-2-((M)-2-(2-fluoro-3-methoxybenzoyl)-6-(8-fluoro-5-methylchroman-6-yl)-4,7-dimethylisoindolin-5-yl)acetic acid], for which the half-inhibitory concentration (IC50) turned out to be 9 nM.

As for `Cc1c(-c2c(C)c3c(c(C)c2[C@H](OC(C)(C)C)C(=O)O)CN(C(=O)c2cccc4c2OCO4)C3)cc(F)c2c1NCCO2` [Example 310, (2S)-2-(2-(benzo[d][1,3]dioxole-4-carbonyl)-6-(8-fluoro-5-methyl-3,4-dihydro-2H-benzo[b][1,4]oxazin-6-yl)-4,7-dimethylisoindolin-5-yl)-2-(tert-butoxy)acetic acid], the IC50 is 18 nM.

The values are drawn from patent publication US10112899B2 (ViiV HEALTHCARE UK LIMITED, priority 2014, dated 2018).
